Earlier results on one compound are cited in patent publication US20030109682A1, “Maytansines and maytansine conjugates” (priority 2001, published 2003).

Data set [1] deals with acute lymphocytic leukemia, breast carcinoma, ovarian cancer, thymoma, melanoma, and non-small scale lung cancer. As to conditions: Phase I, patients with acute lymphocytic leukemia.
For data set [2] the following is noted: Phase II trials.

As to `COc1cc2cc(c1Cl)N(C)C(=O)C[C@H](OC(=O)[C@H](C)N(C)C(C)=O)[C@]1(C)O[C@H]1[C@H](C)[C@@H]1C[C@@](O)(NC(=O)O1)[C@H](OC)/C=C/C=C(\C)C2` [Maytansine], in data set [1], the clinical response result was “encouraging responses”. Further, in data set [2], the gastrointestinal toxicity entry is “manageable gastrointentinal toxicity” and the “neurotoxicity at the site of administration” value is on record as “pain of such magnitude as to prevent further administration”.
